# Literature values as cited in article PMC12382614, “(Oxidopyridyl)Porphyrins of Different Lipophilicity: Photophysical Properties, ROS Production and Phototoxicity on Melanoma Cells Under CoCl2-Induced Hypoxia” (Antioxidants, 2025).
# Key:
# [1] = cited from earlier work
# [2] = set-up: method as in PMID 3222336; conditions: reference compound; cited from earlier work
smiles,measurement,setting,value
"C1=Cc2nc1c(-c1ccccc1)c1nc(c(-c3ccccc3)c3ccc([nH]3)c(-c3ccccc3)c3ccc([nH]3)c2-c2ccccc2)C=C1 [TPP, tetraphenylporphyrin, reference compound]",ΦISC,[1]; reference compound (in toluene),0.87
same,εT-T,[1]; reference compound,66 600 M^−1cm^−1
same,τT,[1]; reference compound,90 μs
same,τFL,[2],10.7 ns
